Measured values: US6451812B1, “Farnesyl protein transferase inhibitors for treating arthropathies” (Janssen Pharmaceutica N.V., priority 1998, dated 2002)
Values joined by “and” are separate entries in the source; they are usually repeats but may differ in a detail not shown here. Equal entries are not always repeated. Where two headings read alike, the source gives them in different places.

Assays:
[1] = tested on: DBA1/J mice; test: Collagen type II induced arthritis, therapeutic treatment (Example 2); format: in vivo; conditions: for Ankylosis score / Incidence of ankylosis (% of animals affected) / Incidence of arthritis (% of animals affected) / Mean Arthritic Score / Mean number of affected paws: treated day 30-49
Description: Male DBA1/J mice were immunized intradernally with collagen type II emulsified in complete Freund's Adjuvant on day 0 and day 21. Treatment of mice was started on day 30 (10 animals/treatment group; the animals were randomized so that both groups had similar arthritic symptoms at the start). Mice were treated orally with vehicle [DMSO: cremophor: 0.9% NaCl solution, 1:1:8 (v:v:v)] or compound 75 at a dose of 100 mg/kg. Three times per week symptoms of arthritis were scored. Animals were treated till day 49, at day 50 animals were sacrificed, blood was collected for analysis of anti-collagen antibodies, and […].
Trained lab personnel evaluated the severity and incidence of the arthritic symptoms at regular intervals without knowing which animals had received vehicle or drug.
In Table 14, the mean arthritic score is shown. For each paw, a score ranging from 0 (normal) to 2 (maximal redness and swelling) is given. The score for the 4 paws is summed up and averaged for the 10 animals per group (=Mean arthritic score).
Table 16 summarizes the results of the observations for the occurrence of ankylosis as the arthritis progresses. Each paw is scored as follows: 0 for no ankylosis, 1 for ankylosis. Again the results for the four paws are summed up and averaged for the 10 animals. Ankylosis starts to occur around day 30. During the whole treatment period, ankylosis is lower in the drug treated group than in the vehicle treated group.
In table 19, the radiographic score of the individual mice is depicted. For each paw, a score ranging from 0 (normal) to 2 (deformation of the whole paw was given. The scores of the four paws are summed up.

[2] = tested on: Lewis rats; format: in vivo; conditions: for % change in body-weight #<−21% / % change in body-weight #>10% / % change in body-weight Mean: day 14-21, 6 animals; for % change in swelling Mean / % change in swelling #<80% / % change in swelling #>170% / % change in swelling #>150%: paw swelling day 21 as % of day 14, 6 animals; for % change in swelling #<80%: criterion for anti-inflammatory activity; for % change in swelling #>170%: pro-inflammatory activity; for % change in swelling #>150%: tendency towards pro-inflammatory activity
Description: Male SPF-breeded Lewis rats (Charles River; 225-275 g) were housed in individual cages under standard laboratory conditions (21±2° C.; 65±15% relative humidity; light-dark cycle set at 12 h). Mycobacterium butyricum (heat-killed and suspended in paraffin oil at 5 mg/ml; 0.05 ml) was inoculated intradermally at the tail base of the rats. On day 14 after inoculation, the diameters (Ø) of the hind paws and tibiotarsal joints (ΣØ14) were compared with the initial diameters (ΣØ0) and rats with a significant swelling (ΔØ14-0≧6.0 mm) were assigned to the various treatment groups (n=6; […]).
Body weight and paw diameters were measured at days 14 and after 1-week treatment at day 21. Diet consumption was also measured and the number of dead animals on day 21 was noted. Paw swelling at day 21 was expressed as a percentage of the initial inflammation at the start of the treatment (day 14). Control animals were included in each experimental session. Test compounds were administered via a medicated diet. For that purpose, compounds were mixed with ground pellets in proportion to give an approximate daily dose. This medicated diet was administered ad libitum during the experimental period. The real dose was calculated by multiplying the consumed amount of diet with the concentration of the test compound in the diet.
Based on a frequency distribution of a series of control data (n=181), all-or-nothing criteria for drug-induced effects were established. The averaged body weight change during the 1 week experimental period in the control population was a decrease of 7 g. […] In the same set of control animals, paw swelling at day 21 was on the average 117% of the initial value at day 14.

[3] = 100 mg/kg orally from day 30, versus vehicle
[4] = day 22 after immunization, 100 mpk orally
[5] = day 24 after immunization, 100 mpk orally
[6] = day 28 after immunization, 100 mpk orally
[7] = day 29 after immunization, 100 mpk orally
[8] = day 31 after immunization, 100 mpk orally
[9] = day 34 after immunization, 100 mpk orally
[10] = day 36 after immunization, 100 mpk orally
[11] = day 38 after immunization, 100 mpk orally
[12] = day 41 after immunization, 100 mpk orally
[13] = day 43 after immunization, 100 mpk orally
[14] = day 45 after immunization, 100 mpk orally
[15] = day 48 after immunization, 100 mpk orally
[16] = day 50 after immunization, 100 mpk orally
[17] = dose 40 mg/kg via medicated diet
[18] = dose 80 mg/kg via medicated diet
[19] = dose 160 mg/kg via medicated diet

For Cn1cncc1C(N)(c1ccc(Cl)cc1)c1ccc2c(c1)c(-c1cccc(Cl)c1)cc(=O)n2C (single isomer, unassigned; (+)) [Compound 75, (+)-6-[amino(4-chlorophenyl)(1-methyl-1H-imidazol-5-yl)methyl]-4-(3-chlorophenyl)-1-methyl-2(1H)-quinolinone], the “effect on mean arthritic score (in words)” value [1, 3] was “clearly suppresses the arthritic score”, the “effect on mean number of affected paws (in words)” value [1, 3] was “reduces that number” and the lethalities ([1]; 100 mg/kg orally, day 30-49) was “no lethalities were observed”. For the same compound, the signs of toxicity ([1]; 100 mg/kg orally, day 30-49) was “did not show any signs of toxicity”, the “Radiographic score, Average” value ([1]; average of 10 mice, 100 mpk orally, treated day 30-49, radiographs at day 50) was 2.3 and the Ankylosis score [1, 4] was 0.00. For the same compound, the “Incidence of ankylosis (% of animals affected)” value [1, 4] was 0%, the “Incidence of arthritis (% of animals affected)” value [1, 4] was 0% and the “Mean Arthritic Score” value [1, 4] was 0.00. For the same compound, the “Mean number of affected paws” value [1, 4] was 0.00, the Ankylosis score [1, 5] was 0.00 and the “Incidence of ankylosis (% of animals affected)” value [1, 5] was 0%. The “Incidence of arthritis (% of animals affected)” value [1, 5] was 10%, the “Mean Arthritic Score” value [1, 5] was 0.03 and the “Mean number of affected paws” value [1, 5] was 0.10. For the same compound, the Ankylosis score [1, 6] was 0.00, the “Incidence of ankylosis (% of animals affected)” value [1, 6] was 0% and the “Incidence of arthritis (% of animals affected)” value [1, 6] was 90%. The “Mean Arthritic Score” value [1, 6] was 3.50, the “Mean number of affected paws” value [1, 6] was 2.40 and the Ankylosis score [1, 7] was 0.00. For the same compound, the “Incidence of ankylosis (% of animals affected)” value [1, 7] was 0%, the “Incidence of arthritis (% of animals affected)” value [1, 7] was 100% and the “Mean Arthritic Score” value [1, 7] was 4.25. The “Mean number of affected paws” value [1, 7] was 2.70, the Ankylosis score [1, 8] was 0.80 and the “Incidence of ankylosis (% of animals affected)” value [1, 8] was 60%. The “Incidence of arthritis (% of animals affected)” value [1, 8] was 100%, the “Mean Arthritic Score” value [1, 8] was 4.03 and the “Mean number of affected paws” value [1, 8] was 2.80. For the same compound, the Ankylosis score [1, 9] was 2.50, the “Incidence of ankylosis (% of animals affected)” value [1, 9] was 90% and the “Incidence of arthritis (% of animals affected)” value [1, 9] was 100%. For the same compound, the “Mean Arthritic Score” value [1, 9] was 3.80, the “Mean number of affected paws” value [1, 9] was 2.60 and the Ankylosis score [1, 10] was 2.40. For the same compound, the “Incidence of ankylosis (% of animals affected)” value [1, 10] was 90%, the “Incidence of arthritis (% of animals affected)” value [1, 10] was 90% and the “Mean Arthritic Score” value [1, 10] was 3.00. For the same compound, the “Mean number of affected paws” value [1, 10] was 2.20, the Ankylosis score [1, 11] was 2.60 and the “Incidence of ankylosis (% of animals affected)” value [1, 11] was 100%. The “Incidence of arthritis (% of animals affected)” value [1, 11] was 90%, the “Mean Arthritic Score” value [1, 11] was 3.20 and the “Mean number of affected paws” value [1, 11] was 2.60. The Ankylosis score [1, 12] was 1.70, the “Incidence of ankylosis (% of animals affected)” value [1, 12] was 70% and the “Incidence of arthritis (% of animals affected)” value [1, 12] was 90%. For the same compound, the “Mean Arthritic Score” value [1, 12] was 3.45, the “Mean number of affected paws” value [1, 12] was 2.40 and the Ankylosis score [1, 13] was 2.20. The “Incidence of ankylosis (% of animals affected)” value [1, 13] was 80%, the “Incidence of arthritis (% of animals affected)” value [1, 13] was 90% and the “Mean Arthritic Score” value [1, 13] was 2.15. For the same compound, the “Mean number of affected paws” value [1, 13] was 2.20, the Ankylosis score [1, 14] was 1.90 and the “Incidence of ankylosis (% of animals affected)” value [1, 14] was 80%. The “Incidence of arthritis (% of animals affected)” value [1, 14] was 100%, the “Mean Arthritic Score” value [1, 14] was 1.33 and the “Mean number of affected paws” value [1, 14] was 1.90. The Ankylosis score [1, 15] was 2.10, the “Incidence of ankylosis (% of animals affected)” value [1, 15] was 90% and the “Incidence of arthritis (% of animals affected)” value [1, 15] was 60%. The “Mean Arthritic Score” value [1, 15] was 1.58, the “Mean number of affected paws” value [1, 15] was 1.50 and the “Incidence of arthritis (% of animals affected)” value ([1]; day 50 after immunization (end of the treatment period), 100 mpk orally) was 60%. The Ankylosis score [1, 16] was 0.80, the “Incidence of ankylosis (% of animals affected)” value [1, 16] was 40% and the “Mean Arthritic Score” value [1, 16] was 0.88. For the same compound, the “Mean number of affected paws” value [1, 16] was 1.20, the “Radiographic score of individual mice” value ([1]; individual mouse, sum of four paws (0-2 each), 100 mpk orally, treated day 30-49, radiographs at day 50, 100 mg/kg) was 2.5 (2×) and 1.0 and 0.0 (2×) and 5.25 and 2.0 (2×) and 3.0 and 4.75 and the “Radiographic score, Median” value ([1]; median of 10 mice, 100 mpk orally, treated day 30-49, radiographs at day 50) was 2.25. The “arthritic symptoms (paw swelling, occurrence of ankylosis and deterioration of the joints as observed on radiographs)” value ([1]; oral administration to mice with established arthritis) was “reduces the arthritic symptoms”, the “% change in body-weight #<−21%” value [2, 17] was 0 number of animals and the “% change in body-weight #>10%” value [2, 17] was 0 number of animals. For the same compound, the “% change in body-weight Mean” value [2, 17] was −9%, the “% change in swelling Mean” value [2, 17] was 94% and the “% change in swelling #<80%” value [2, 17] was 0 number of animals. The “% change in swelling #>170%” value [2, 17] was 0 number of animals, the “% change in swelling #>150%” value [2, 17] was 0 number of animals and the “% change in body-weight #<−21%” value [2, 18] was 4 number of animals. The “% change in body-weight #>10%” value [2, 18] was 0 number of animals, the “% change in body-weight Mean” value [2, 18] was −19% and the “% change in swelling Mean” value [2, 18] was 86%. For the same compound, the “% change in swelling #<80%” value [2, 18] was 3 number of animals, the “% change in swelling #>170%” value [2, 18] was 0 number of animals and the “% change in swelling #>150%” value [2, 18] was 0 number of animals. For the same compound, the “% change in body-weight #<−21%” value [2, 19] was 4 number of animals, the “% change in body-weight #>10%” value [2, 19] was 0 number of animals and the “% change in body-weight Mean” value [2, 19] was −24%. The “% change in swelling Mean” value [2, 19] was 79%, the “% change in swelling #<80%” value [2, 19] was 3 number of animals and the “% change in swelling #>170%” value [2, 19] was 0 number of animals. For the same compound, the “% change in swelling #>150%” value [2, 19] was 0 number of animals.
